According to patent US10654818B2, “Furane derivatives as inhibitors of ATAD2” (BAYER PHARMA AKTIENGESELLSCHAFT, priority 2015, dated 2020):

Target: T1, recombinant, N-terminally GST-tagged ATAD2 bromodomain amino acids 981-1108 (Homo sapiens, UniProt Q6PL18)
T1 construct: ATAD2 bromodomain amino acids 981-1108; made in house; host or cells: E. coli
T1 sequence (Q6PL18 981-1108): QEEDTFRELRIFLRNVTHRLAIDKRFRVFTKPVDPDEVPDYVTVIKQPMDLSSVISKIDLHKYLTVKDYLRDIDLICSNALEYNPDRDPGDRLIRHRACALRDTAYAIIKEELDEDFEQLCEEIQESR
Assay: TR-FRET assay: disruption of the interaction between ATAD2 and acetylated Histone H4 (Ac-H4) peptide
Assay type: binding
Conditions: inhibition of ATAD2/Ac-H4 complex formation; 10 nM ATAD2, 50 nM Ac-H4 peptide
Text: The ability of the compounds described in the present invention to disrupt the interaction between ATAD2 and acetylated Histone H4 (Ac-H4) was used as quantitative measure of their ATAD2-binding affinities.
To this end a TR-FRET assay which detects the binding of an Ac-H4-derived synthetic peptide (purchased from e.g. Biosyntan (Berlin, Germany)) of sequence HSGRGKGGGGKGLGK(Ac)GGAKRHRK-Biotin to recombinant, N-terminally GST-tagged ATAD2 bromodomain amino acids 981-1108. The protein was produced in-house via E. coli expression followed by GSH-Sepharose affinity- and Superdex S200-size exclusion chromatography purification.
Typically, 11 different concentrations of each compound (0.1 nM, 0.33 nM, 1.1 nM, 3.8 nM, 13 nM, 44 nM, 0.15 μM, 0.51 μM, 1.7 μM, 5.9 μM and 20 μM) were tested in duplicate within the same microtiter plate. To this end, 100-fold concentrated compound solutions (in DMSO) were previously prepared with a Precision Pippeting System (BioTek) by serial dilution (1:3.4) of 2 mM stocks in clear, low-volume 384-well microtiter source plates (Greiner Bio-One). Subsequently, 50 nl of compounds were transferred into black, low-volume test plates from the same supplier using a Hummingbird capillary based liquid handling instrument (Digilab). Tests were started by the addition of 2 μl of 2.5-fold concentrated ATAD2 solution (25 nM=10 nM final concentration in the 5 μl assay volume) in aqueous assay buffer [50 mM HEPES pH 7.5, 50 mM potassium fluoride (KF), 100 mM sodium chloride (NaCl), 0.25 mM CHAPS, 0.05% bovine serum albumine (BSA) and 1 mM dithiothreitol (DTT)] to the compounds in the test plate with a Multidrop dispenser (Thermo-Fisher). Test plates were then incubated 10′ at 22° C., in order to allow pre-equilibration of putative compound-ATAD2 complexes. Subsequently, 3 μl of a 1.67-fold concentrated solution containing Ac-H4 peptide (83.5 nM=50 nM final concentration) and TR-FRET detection reagents [16.7 nM Anti-GST-XL665 (Cisbio), =10 nM final concentration and 4.17 nM Lance EU W-1024 Streptavidin Europium Chelate (Perkin-Elmer)=2.5 nM final concentration were dispensed into the plates.
The mixture was further incubated in the dark for 1 hour at 22° C. Finally the inhibition of the formation of ATAD2/Ac-H4 complexes was assessed by measurement of the resonance energy transfer from the Streptavidin-Eu-Chelate to the anti-GST-XL665 antibody present in the reaction. To this end, the fluorescence emissions at 622 nm and 665 nm after excitation at 337 nm were measured in a TR-FRET reader, e.g. a Rubystar or Pherastar (both from BMG Lab Technologies) or a Viewlux (Perkin-Elmer) and the ratio of the emissions at 665 nm and at 622 nm was taken as indicator for the amount of ATAD2/Ac-H4 complexes in equilibrium.
The data were normalized using two sets of control wells (16 each). The first accounted for 100% ATAD2/Ac-H4 binding (0% inhibition), and contained all reaction components but DMSO instead of inhibitors. The second represented 0% ATAD2/Ac-H4 binding (100% inhibition), and included all assay components except ATAD2. IC50 values were calculated by fitting the normalized inhibition data to a 4-parameter logistic equation using either Screener software (Genedata) or a Bayer-proprietary analysis software.

Structure (SMILES)	IC50 [µM]
Cc1ccc([C@@H](C)NCc2ccc(-c3ccc(Cl)c(C(=O)N[C@@H](CNC4CCNC(C)(C)C4)Cc4ccc(C#N)cc4)c3)o2)cc1 (mixture of isomers) [Example 68]	0.109
Cc1ccc([C@@H](C)NCc2ccc(-c3ccc(Cl)c(C(=O)N[C@@H](CN[C@H]4CC[C@@H](N)CC4)Cc4ccc(C#N)cc4)c3)o2)cc1 (single isomer, unassigned) [Example 72]	0.138
Cc1ccc(C(C)NCc2ccc(-c3ccc(Cl)c(C(=O)N[C@@H](Cc4ccc(C#N)cc4)c4ncc[nH]4)c3)o2)cc1 (stereo in doubt) [Example 19, 2-chloro-N-[2-(4-cyanophenyl)-1-(1H-imidazol-2-yl)ethyl]-5-[5-({[(1S)-1-(4-methylphenyl)ethyl]amino}methyl)-2-furyl]benzamide]	0.64
Cc1ccc([C@@H](C)NCc2ccc(-c3ccc(Cl)c(C(=O)N[C@H]4CNCC[C@H]4c4ccc(C#N)cc4)c3)o2)cc1 (stereo in doubt) [Example 76, Cis-chloro-N-[4-(4-cyanophenyl)piperidin-3-yl]-5-[5-({[(1R)-1-(4-methylphenyl)-ethyl]amino}methyl)-2-furyl]benzamide]	0.441
Cc1ccc([C@@H](C)NCc2ccc(-c3ccc(Cl)c(C(=O)N[C@@H](CC(=O)N(C)C)Cc4ccc(C#N)cc4)c3)o2)cc1 [Example 1, 2-Chloro-N-[(2R)-1-(4-cyanophenyl)-4-(dimethylamino)-4-oxobutan-2-yl]-5-[5-({[(1R)-1-(4-methylphenyl)ethyl]amino}methyl)furan-2-yl]benzamide]	0.74
Cc1ccc([C@@H](C)NCc2ccc(-c3ccc(Cl)c(C(=O)N[C@@H](CC(N)=O)Cc4ccc(C#N)cc4)c3)o2)cc1 [Example 3, N-[(2R)-4-amino-1-(4-cyanophenyl)-4-oxobutan-2-yl]-2-chloro-5-[5-({[(1R)-1-(4-methylphenyl)ethyl]amino}methyl)furan-2-yl]benzamide]	0.927
CNC(=O)[C@@H](Cc1ccc(C#N)cc1)NC(=O)c1cc(-c2ccc(CN[C@H](C)c3ccc(C)cc3)o2)ccc1Cl [Example 5, Nα-{2-chloro-5-[5-({[(1R)-1-(4-methylphenyl)ethyl]amino}methyl)furan-2-yl]benzoyl}-4-cyano-N-methyl-D-phenylalaninamide]	1.89
Cc1ccc([C@@H](C)NCc2ccc(-c3ccc(Cl)c(C(=O)N[C@@H](CC(=O)NCCO)Cc4ccc(C#N)cc4)c3)o2)cc1 [Example 7, 2-chloro-N-{(2R)-1-(4-cyanophenyl)-4-[(2-hydroxyethyl)amino]-4-oxobutan-2-yl}-5-[5-({[(1R)-1-(4-methylphenyl)ethyl]amino}methyl)-2-furyl]benzamide]	0.832
Cc1ccc([C@@H](C)NCc2ccc(-c3ccc(Cl)c(C(=O)N[C@@H](CC(=O)NCCCO)Cc4ccc(C#N)cc4)c3)o2)cc1 [Example 8, 2-chloro-N-{(2R)-1-(4-cyanophenyl)-4-[(3-hydroxypropyl)amino]-4-oxobutan-2-yl}-5-[5-({[(1R)-1-(4-methylphenyl)ethyl]amino}methyl)-2-furyl]benzamide]	0.898
Cc1ccc([C@@H](C)NCc2ccc(-c3ccc(Cl)c(C(=O)N[C@@H](CC(=O)N4CCCC4)Cc4ccc(C#N)cc4)c3)o2)cc1 [Example 9, 2-chloro-N-[(2R)-1-(4-cyanophenyl)-4-oxo-4-(pyrrolidin-1-yl)butan-2-yl]-5-[5-({[(1R)-1-(4-methylphenyl)ethyl]amino}methyl)-2-furyl]benzamide]	0.749
Cc1ccc([C@@H](C)NCc2ccc(-c3ccc(Cl)c(C(=O)N[C@@H](CC(=O)N4CCN(C)CC4)Cc4ccc(C#N)cc4)c3)o2)cc1 [Example 11, 2-chloro-N-[(2R)-1-(4-cyanophenyl)-4-(4-methylpiperazin-1-yl)-4-oxobutan-2-yl]-5-[5-({[(lR)-1-(4-methylphenyl)ethyl]amino}methyl)-2-furyl]benzamide]	0.822
Cc1ccc([C@@H](C)NCc2ccc(-c3ccc(Cl)c(C(=O)N[C@@H](CCO)Cc4ccc(C#N)cc4)c3)o2)cc1 [Example 13, 2-chloro-N-[(2R)-1-(4-cyanophenyl)-4-hydroxybutan-2-yl]-5-[5-({[(1R)-1-(4-methylphenyl)ethyl]amino}methyl)-2-furyl]benzamide]	0.386
COC(=O)[C@@H](Cc1ccc(C#N)cc1)NC(=O)c1cc(-c2ccc(CN[C@H](C)c3ccc(C)cc3)o2)ccc1Cl [Example 15, methyl N-{2-chloro-5-[5-({[(1R)-1-(4-methylphenyl)ethyl]amino}methyl)-2-furyl]benzoyl}-4-cyano-D-phenylalaninate]	0.812
Cc1ccc([C@@H](C)NCc2ccc(-c3ccc(Cl)c(C(=O)N[C@@H](CO)Cc4ccc(I)cc4)c3)o2)cc1 [Example 18, 2-chloro-N-[(2R)-1-hydroxy-3-(4-iodophenyl)propan-2-yl]-5-[5-({[(1R)-1-(4-methylphenyl)ethyl]amino}methyl)-2-furyl]benzamide]	1.13

More lines, now with the values ahead:

IC50 [µM]	Structure (SMILES)
0.949	Cc1ccc([C@@H](C)NCc2ccc(-c3ccc(Cl)c(C(=O)N[C@H](Cc4ccc(C#N)cc4)C(N)=O)c3)o2)cc1 [Example 2, Nα-{2-chloro-5-[5-({[(1R)-1-(4-methylphenyl)ethyl]amino}methyl)-2-furyl]benzoyl}-4-cyano-D-phenylalaninamide]
0.656	Cc1ccc([C@@H](C)NCc2ccc(-c3ccc(Cl)c(C(=O)N[C@@H](CC(=O)NC(C)C)Cc4ccc(C#N)cc4)c3)o2)cc1 [Example 6, 2-chloro-N-[(2R)-1-(4-cyanophenyl)-4-(isopropylamino)-4-oxobutan-2-yl]-5-[5-({[(1R)-1-(4-methylphenyl)ethyl]amino}methyl)-2-furyl]benzamide]
0.674	Cc1ccc([C@@H](C)NCc2ccc(-c3ccc(Cl)c(C(=O)N[C@@H](CC(=O)N4CCOCC4)Cc4ccc(C#N)cc4)c3)o2)cc1 [Example 10, 2-chloro-N-[(2R)-1-(4-cyanophenyl)-4-(morpholin-4-yl)-4-oxobutan-2-yl]-5-[5-({[(1R)-1-(4-methylphenyl)ethyl]amino}methyl)-2-furyl]benzamide]
0.668	Cc1ccc([C@@H](C)NCc2ccc(-c3ccc(Cl)c(C(=O)N[C@H](Cc4ccc(C#N)cc4)C(C)(C)O)c3)o2)cc1 [Example 12, 2-chloro-N-[(2R)-1-(4-cyanophenyl)-3-hydroxy-3-methylbutan-2-yl]-5-[5-({[(1R)-1-(4-methylphenyl)ethyl]amino}methyl)-2-furyl]benzamide]
0.891	COC[C@@H](Cc1ccc(C#N)cc1)NC(=O)c1cc(-c2ccc(CN[C@H](C)c3ccc(C)cc3)o2)ccc1Cl [Example 14, 2-chloro-N-[(2R)-1-(4-cyanophenyl)-3-methoxypropan-2-yl]-5-[5-({[(1R)-1-(4-methylphenyl)ethyl]amino}methyl)-2-furyl]benzamide]
0.57	Cc1ccc([C@@H](C)NCc2ccc(-c3ccc(Cl)c(C(=O)N[C@H](Cc4ccc(C#N)cc4)[C@@H](C)O)c3)o2)cc1 [Example 16, 2-chloro-N-[(2R,3R)-1-(4-cyanophenyl)-3-hydroxybutan-2-yl]-5-[5-({[(1R)-1-(4-methylphenyl)ethyl]amino}methyl)-2-furyl]benzamide]
0.341	Cc1ccc([C@@H](C)NCc2ccc(-c3ccc(Cl)c(C(=O)N[C@H](Cc4ccc(C#N)cc4)[C@H](C)O)c3)o2)cc1 [Example 17, 2-chloro-N-[(2R,3S)-1-(4-cyanophenyl)-3-hydroxybutan-2-yl]-5-[5-({[(1R)-1-(4-methylphenyl)ethyl]amino}methyl)-2-furyl]benzamide]
